In general, AUC(0-inf) refers to the area under the concentration-time curve extrapolated to infinity. Low readings indicate low exposure, high ones high exposure. Broadly, the AUC is the area under the concentration-time curve, a measure of exposure. For orientation: clearance means the rate of elimination divided by the concentration.

Data set [1] concerns the target T1, human Cat K (Homo sapiens, UniProt P43235).
T1 sequence (P43235 115-329): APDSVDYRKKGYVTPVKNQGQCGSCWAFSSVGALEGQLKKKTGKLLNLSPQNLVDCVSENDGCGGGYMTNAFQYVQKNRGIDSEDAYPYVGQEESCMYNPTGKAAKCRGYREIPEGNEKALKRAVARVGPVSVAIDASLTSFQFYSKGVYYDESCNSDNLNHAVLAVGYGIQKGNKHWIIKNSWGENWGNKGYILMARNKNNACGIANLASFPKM
The conditions noted are these: human Cat K vs other human cathepsins; cited from earlier work.

Data set [2] in a line: Rhesus IV Pharmacokinetics. The note with it: for % AUC Extrap. / AUC(0-inf) / C0 / AUC / clearance / Vd / half-life: male rhesus monkeys; for concentration at 0.5 h: 0.50 hours; for AUC: read-out: AUC(0-x); for clearance: read-out: Cl (plasma clearance); for Vd: read-out: Vdss; for half-life: read-out: t½ (converted). The class given is in vivo, rhesus monkeys. How it is done:
The study was conducted in male rhesus monkeys (n=4) via the intravenous route using a deuteriated (D6-Odanacatib, or D6-ODN) and non-deuteriated (D0-Odanacatib, or D0-ODN) forms of odanacatib. The dosing solution was prepared in DMSO at a concentration of 7.5 mg/mL and the dose volume was 0.1 mL/kg. Each monkey was administered a 0.75 mg/kg dose each of D6-ODN and D0-ODN as a mixture. Animals were fasted overnight prior to dosing. The dose was administered via the saphenous vein. […] Plasma was stored at −70° C. until analysis.
The lower limit of quantitation was 0.48 nM.
Pharmacokinetic parameters were obtained using non-compartmental methods (Watson®). The plasma clearance (CLP) was calculated as the IV dose divided by the area under the plasma concentration versus time curve (AUC0-∞). AUC was determined using logarithmic trapezoidal interpolation.

For data set [3] the following is noted: rhesus monkey, in vivo, po, 2.5 mg/kg.
Method: The pharmacokinetic evaluation was carried out following oral administration to monkeys of the following ODN forms and formulations: D6-ODN spray-dried formulation (A), D6-ODN conventional formulation (B), D0-ODN spray-dried formulation (C) and D0-ODN conventional formulation (D).
The deuterated analog of odanacatib (D6-ODN) as well as ODN (D0-ODN) were prepared either as spray-dried or conventional (crystalline) formulations for pharmacokinetic study in monkeys. The spray-dried form was suspended in water, while the crystalline drug was dissolved in Imwitor:Tween for oral administration to monkeys. Spray-dried D6-ODN (A), crystalline D6-ODN (B), spray-dried D0-ODN (C) and crystalline D0-ODN (D) were dosed to monkeys (n=4) in a cross-over fashion. Each monkey was administered a ˜2.5 mg/kg dose each of forms B and D as a mixture in period one, and forms C and A were then dosed after a washout period. […]
The concentrations of D6-ODN and D0-ODN in plasma were determined by LC-MS/MS in the positive ion mode using the Turbo Ion Spray interface. […] Quantification was based on selected reaction monitoring of the following precursor/product ion pairs: m/z 526.3→313.0 (D0-ODN); m/z 532.2→313.2 (D6-ODN); m/z 538.3→325.2 (^13C12-ODN). The lower limit of quantitation was 1.9 nM. […]
[4] abbreviates: rhesus monkey, plasma, male rhesus monkeys n=4, 0.75 mg/kg IV.
[5] abbreviates: rhesus monkey, plasma, 0.75 mg/kg IV.

`CC(C)(F)C[C@H](N[C@@H](c1ccc(-c2ccc(S(C)(=O)=O)cc2)cc1)C(F)(F)F)C(=O)NC1(C#N)CC1` [Example D0-ODN, N^1-(1-cyanocyclopropyl)-4-fluoro-N^2-{(1S)-2,2,2-trifluoro-1-[4′-(methylsulfonyl)-1,1′-biphenyl-4-yl]ethyl}-L-leucinamide, reference compound]: in data set [1], the “selectivity against all other known human cathepsins” value is reported as at least 300 fold. Besides, in data set [2] (0.75 mg/kg IV), the “% AUC Extrap.” value stood at 0.25%. In data set [2] (setting [4]), the concentration at 0.08 h was found to be 1020 nM, the concentration at 0.25 h came to 947 nM, the concentration at 0.5 h worked out at 872 nM and the concentration at 1 h is 854 nM. In data set [2] (setting [4]), this compound had a concentration at 4 h of 462 nM, a concentration at 8 h of 250 nM, a concentration at 12 h of 130 nM and a concentration at 24 h of 14.5 nM. Further, in data set [2] (setting [4]), the concentration at 30 h was 6.22 nM and the concentration at 48 h was determined as 1.22 nM. Further, in data set [2] (setting [5]), the AUC(0-inf) stood at 5.73 µM·h, the C0 stood at 1080 nM, the AUC worked out at 5.71 µM·h and the clearance amounted to 4.6 mL/min/kg. Also, in data set [2] (setting [5]), the Vd was determined as 1.9 L/kg and the half-life was 3.7 h.
On to `[2H]C([2H])([2H])C(F)(C[C@H](N[C@@H](c1ccc(-c2ccc(S(C)(=O)=O)cc2)cc1)C(F)(F)F)C(=O)NC1(C#N)CC1)C([2H])([2H])[2H]` [Example D6-ODN, (2S)—N-(1-cyanocyclopropyl)-5,5,5-trideuterio-4-fluoro-4-(trideuteriomethyl)-2-[[(1S)-2,2,2-trifluoro-1-[4-(4-methylsulfonylphenyl)phenyl]ethyl]amino]pentanamide], for which the “increase in plasma elimination half-life of ODN by deuterium substitution” value in data set [3] was “about 2.5 fold”. Also, the “% AUC Extrap.” value in data set [2] (0.75 mg/kg IV) was determined as 1.7%. In data set [2] (setting [4]), this compound showed a concentration at 0.08 h of 894 nM, a concentration at 0.25 h of 839 nM, a concentration at 0.5 h of 793 nM and a concentration at 1 h of 831 nM. In addition, in data set [2] (setting [4]), the concentration at 4 h is 633 nM, the concentration at 8 h worked out at 633 nM, the concentration at 12 h is 515 nM and the concentration at 24 h was found to be 273 nM. For the same compound, in data set [2] (setting [4]), the concentration at 30 h was 208 nM and the concentration at 48 h worked out at 70.7 nM. The compound also yielded a concentration at 72 h in data set [2] (rhesus monkey, plasma, male rhesus monkeys n=4, 0.75 mg/kg IV, 72.00 hours) of 28.4 nM. Besides, in data set [2] (rhesus monkey, plasma, male rhesus monkeys n=4, 0.75 mg/kg IV, 96.00 hours), the concentration at 96 h came to 13.8 nM. In data set [2] (setting [5]), the AUC(0-inf) came to 18 µM·h, the C0 was 933 nM, the AUC was 17.7 µM·h and the clearance is 1.4 mL/min/kg. In addition, in data set [2] (setting [5]), the Vd came to 1.7 L/kg and the half-life was 16 h. Besides, in data set [2] (rhesus monkeys, 0.75 mg/kg IV), the “higher exposure compared to D0-ODN” value is reported as 3 fold, the “longer half-life compared to D0-ODN” value turned out to be 4 fold and the “lower clearance compared to D0-ODN” value was found to be 3 fold.

The record behind these values is patent US8791162B2, “Cathepsin cysteine protease inhibitors” (Merck Sharp & Dohme Corp., priority 2011, dated 2014).
